Results from PubChem BioAssay AID2060884 (Molecular Pharmacology Branch, DTP, NCI, 2025).
Each block holds one compound with its values, some of them ahead of it.

Test system: NCI-H929 complex spheroids, viability % test/control
Assay: Anticancer human tumor NCI-H929 cell line growth inhibition [RAS];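 note: compound exposure lasted seven days before viability was read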;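 for viability, T/C: 100% = DMSO vehicle control viability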
Details: for viability, T/C: stronger effect = lower value
Outline: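 Tumour cells grown as complex spheroids with HUVEC endothelial cells and mesenchymal stem cells, treated with RAS pathway inhibitor combinations. Each agent spans half-log steps from near clinical Cmax, or 10 microM where Cmax is unknown.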

[1] = curve of first compound, second compound 0.0316 µM
[2] = curve of first compound, second compound 0.1 µM
[3] = curve of first compound, second compound 0.316 µM
[4] = curve of first compound, second compound 1 µM
[5] = curve of first compound, second compound 3.16 µM
[6] = curve of first compound, second compound 10 µM
[7] = second compound 0.0316 µM, first compound 0.0316 µM
[8] = second compound 0.0316 µM, first compound 0.1 µM
[9] = second compound 0.0316 µM, first compound 0.316 µM
[10] = second compound 0.0316 µM, first compound 1 µM
[11] = second compound 0.0316 µM, first compound 3.16 µM
[12] = second compound 0.0316 µM, first compound 10 µM
[13] = second compound 0.1 µM, first compound 0.0316 µM
[14] = second compound 0.1 µM, first compound 0.1 µM
[15] = second compound 0.1 µM, first compound 0.316 µM
[16] = second compound 0.1 µM, first compound 1 µM
[17] = second compound 0.1 µM, first compound 3.16 µM
[18] = second compound 0.1 µM, first compound 10 µM
[19] = second compound 0.316 µM, first compound 0.0316 µM
[20] = second compound 0.316 µM, first compound 0.1 µM
[21] = second compound 0.316 µM, first compound 0.316 µM
[22] = second compound 0.316 µM, first compound 1 µM
[23] = second compound 0.316 µM, first compound 3.16 µM
[24] = second compound 0.316 µM, first compound 10 µM
[25] = second compound 1 µM, first compound 0.0316 µM
[26] = second compound 1 µM, first compound 0.1 µM
[27] = second compound 1 µM, first compound 0.316 µM
[28] = second compound 1 µM, first compound 1 µM
[29] = second compound 1 µM, first compound 3.16 µM
[30] = second compound 1 µM, first compound 10 µM
[31] = second compound 3.16 µM, first compound 0.0316 µM
[32] = second compound 3.16 µM, first compound 0.1 µM
[33] = second compound 3.16 µM, first compound 0.316 µM
[34] = second compound 3.16 µM, first compound 1 µM
[35] = second compound 3.16 µM, first compound 3.16 µM
[36] = second compound 3.16 µM, first compound 10 µM
[37] = second compound 10 µM, first compound 0.0316 µM
[38] = second compound 10 µM, first compound 0.1 µM
[39] = second compound 10 µM, first compound 0.316 µM
[40] = second compound 10 µM, first compound 1 µM
[41] = second compound 10 µM, first compound 3.16 µM
[42] = second compound 10 µM, first compound 10 µM

Compound: CC(C)NCC(C(=O)N1CCN(c2ncnc3c2C(C)CC3O)CC1)c1ccc(Cl)cc1 (stereo not given) + C#Cc1c(F)ccc2cc(O)cc(-c3ncc4c(N5CC6CCC(C5)N6)nc(OCC56CCCN5CC(F)C6)nc4c3F)c12
IC50 [1]: 4.58 µM
IC50 [2]: 3.05 µM
IC50 [3]: 3.32 µM
IC50 [4]: 3.81 µM
IC50 [5]: 2.83 µM
IC50 [6]: 1.59 µM
viability, T/C [7]: 105%
viability, T/C [8]: 105%
viability, T/C [9]: 111%
viability, T/C [10]: 102%
viability, T/C [11]: 66%
viability, T/C [12]: 16.3%
viability, T/C [13]: 96.9%
viability, T/C [14]: 105%
viability, T/C [15]: 109%
viability, T/C [16]: 104%
viability, T/C [17]: 48.3%
viability, T/C [18]: 14.1%
viability, T/C [19]: 96.2%
viability, T/C [20]: 101%
viability, T/C [21]: 108%
viability, T/C [22]: 106%
viability, T/C [23]: 51.6%
viability, T/C [24]: 13.6%
viability, T/C [25]: 98.4%
viability, T/C [26]: 101%
viability, T/C [27]: 108%
viability, T/C [28]: 108%
viability, T/C [29]: 58%
viability, T/C [30]: 7.88%
viability, T/C [31]: 97.7%
viability, T/C [32]: 103%
viability, T/C [33]: 107%
viability, T/C [34]: 106%
viability, T/C [35]: 44.2%
viability, T/C [36]: 9.12%
viability, T/C [37]: 94.2%
viability, T/C [38]: 92.1%
viability, T/C [39]: 101%
viability, T/C [40]: 67.5%
viability, T/C [41]: 21.9%
viability, T/C [42]: 2.52%

Compound: C[C@@H](NC(=O)c1ncnc(N)c1Cl)c1ncc(C(=O)Nc2cc(C(F)(F)F)c(Cl)cn2)s1 + C#Cc1c(F)ccc2cc(O)cc(-c3ncc4c(N5CC6CCC(C5)N6)nc(OCC56CCCN5CC(F)C6)nc4c3F)c12
IC50 [1]: > 10 µM
IC50 [2]: > 10 µM
IC50 [3]: > 10 µM
IC50 [4]: > 10 µM
IC50 [5]: > 10 µM
IC50 [6]: > 10 µM
viability, T/C [7]: 91.7%
viability, T/C [8]: 89%
viability, T/C [9]: 93.6%
viability, T/C [10]: 79.9%
viability, T/C [11]: 92.2%
viability, T/C [12]: 108%
viability, T/C [13]: 96.2%
viability, T/C [14]: 88.3%
viability, T/C [15]: 89.4%
viability, T/C [16]: 80.7%
viability, T/C [17]: 95.1%
viability, T/C [18]: 110%
viability, T/C [19]: 95.3%
viability, T/C [20]: 94%
viability, T/C [21]: 91.5%
viability, T/C [22]: 85.9%
viability, T/C [23]: 96.4%
viability, T/C [24]: 106%
viability, T/C [25]: 94.9%
viability, T/C [26]: 91.2%
viability, T/C [27]: 94.8%
viability, T/C [28]: 84.3%
viability, T/C [29]: 84.1%
viability, T/C [30]: 109%
viability, T/C [31]: 89.4%
viability, T/C [32]: 94.9%
viability, T/C [33]: 82.6%
viability, T/C [34]: 90.7%
viability, T/C [35]: 89.8%
viability, T/C [36]: 111%
viability, T/C [37]: 77.3%
viability, T/C [38]: 59.4%
viability, T/C [39]: 79.2%
viability, T/C [40]: 74.1%
viability, T/C [41]: 92.1%
viability, T/C [42]: 101%

Compound: Cc1nc(N2CCC3(CC2)COC(C)C3N)c(CO)nc1Sc1ccnc(N)c1Cl (stereo not given) + C=CC(=O)N1CCN(c2nc(OCC3CCCN3C)nc3c(F)c(-c4nc(N)cc(C)c4C(F)(F)F)c(Cl)cc23)C(C)C1
IC50 (curve of first compound, second compound 0.00316 µM): > 10 µM
IC50 (curve of first compound, second compound 0.01 µM): > 10 µM
IC50 [1]: > 10 µM
IC50 [2]: > 10 µM
IC50 [3]: > 10 µM
IC50 [4]: > 10 µM
viability, T/C (second compound 0.00316 µM, first compound 0.0316 µM): 97.9%
viability, T/C (second compound 0.00316 µM, first compound 0.1 µM): 94.5%
viability, T/C (second compound 0.00316 µM, first compound 0.316 µM): 97.1%
viability, T/C (second compound 0.00316 µM, first compound 1 µM): 94.4%
viability, T/C (second compound 0.00316 µM, first compound 3.16 µM): 101%
viability, T/C (second compound 0.00316 µM, first compound 10 µM): 98.3%
viability, T/C (second compound 0.01 µM, first compound 0.0316 µM): 95.8%
viability, T/C (second compound 0.01 µM, first compound 0.1 µM): 96%
viability, T/C (second compound 0.01 µM, first compound 0.316 µM): 99.8%
viability, T/C (second compound 0.01 µM, first compound 1 µM): 96.5%
viability, T/C (second compound 0.01 µM, first compound 3.16 µM): 101%
viability, T/C (second compound 0.01 µM, first compound 10 µM): 102%
viability, T/C [7]: 95.7%
viability, T/C [8]: 102%
viability, T/C [9]: 100%
viability, T/C [10]: 99.3%
viability, T/C [11]: 102%
viability, T/C [12]: 102%
viability, T/C [13]: 95.6%
viability, T/C [14]: 101%
viability, T/C [15]: 100%
viability, T/C [16]: 102%
viability, T/C [17]: 104%
viability, T/C [18]: 99.7%
viability, T/C [19]: 101%
viability, T/C [20]: 101%
viability, T/C [21]: 103%
viability, T/C [22]: 100%
viability, T/C [23]: 102%
viability, T/C [24]: 104%
viability, T/C [25]: 104%
viability, T/C [26]: 105%
viability, T/C [27]: 105%
viability, T/C [28]: 105%
viability, T/C [29]: 109%
viability, T/C [30]: 103%

More lines, main results first:

IC50 [1]: > 1 µM
IC50 [2]: > 1 µM
IC50 [3]: > 1 µM
IC50 [4]: > 1 µM
IC50 [5]: > 1 µM
IC50 [6]: > 1 µM
Compound: C=CC(=O)Nc1cc(Nc2nccc(-c3cn(C)c4ccccc34)n2)c(OC)cc1N(C)CCN(C)C + C#Cc1c(F)ccc2cc(O)cc(-c3ncc4c(N5CC6CCC(C5)N6)nc(OCC56CCCN5CC(F)C6)nc4c3F)c12
viability, T/C (second compound 0.0316 µM, first compound 0.00316 µM): 101%
viability, T/C (second compound 0.0316 µM, first compound 0.01 µM): 94.1%
viability, T/C [7]: 101%
viability, T/C [8]: 95.4%
viability, T/C [9]: 99.7%
viability, T/C [10]: 98.8%
viability, T/C (second compound 0.1 µM, first compound 0.00316 µM): 96.8%
viability, T/C (second compound 0.1 µM, first compound 0.01 µM): 97.5%
viability, T/C [13]: 102%
viability, T/C [14]: 98.6%
viability, T/C [15]: 101%
viability, T/C [16]: 102%
viability, T/C (second compound 0.316 µM, first compound 0.00316 µM): 98.1%
viability, T/C (second compound 0.316 µM, first compound 0.01 µM): 101%
viability, T/C [19]: 103%
viability, T/C [20]: 99.2%
viability, T/C [21]: 104%
viability, T/C [22]: 101%
viability, T/C (second compound 1 µM, first compound 0.00316 µM): 94%
viability, T/C (second compound 1 µM, first compound 0.01 µM): 97.2%
viability, T/C [25]: 106%
viability, T/C [26]: 102%
viability, T/C [27]: 102%
viability, T/C [28]: 102%
viability, T/C (second compound 3.16 µM, first compound 0.00316 µM): 101%
viability, T/C (second compound 3.16 µM, first compound 0.01 µM): 97.8%
viability, T/C [31]: 103%
viability, T/C [32]: 98.8%
viability, T/C [33]: 102%
viability, T/C [34]: 104%
viability, T/C (second compound 10 µM, first compound 0.00316 µM): 94%
viability, T/C (second compound 10 µM, first compound 0.01 µM): 98.8%
viability, T/C [37]: 94.8%
viability, T/C [38]: 102%
viability, T/C [39]: 99.1%
viability, T/C [40]: 98.3%

IC50 (compound alone, run of 08/20/2024): > 0.3 µM
Compound: CCn1c(-c2cccnc2C(C)OC)c2c3cc(ccc31)N1CCOC(CC(NC(=O)C(C(C)C)N(C)C(=O)C3(F)CCN(C(=O)C#CC(C)(C)N(C)C)CC3)C(=O)N3CCCC(N3)C(=O)OCC(C)(C)C2)C1 (stereo not given)
viability, T/C (compound 0.000949 µM): 107% [middle of 8 runs]
viability, T/C (compound 0.003 µM): 106% [middle of 8 runs]
viability, T/C (compound 0.00949 µM): 106% [middle of 8 runs]
viability, T/C (compound 0.03 µM): 104% [middle of 8 runs]
viability, T/C (compound 0.0949 µM): 99.9% [middle of 8 runs]
viability, T/C (compound 0.3 µM): 98.9% [middle of 8 runs]
